Measured values: paper PMC12748266, “Testing antimicrobial peptides inhibiting protein synthesis in living E. coli and K. pneumoniae using bio-orthogonal non-canonical amino-acid tagging” (Frontiers in Microbiology, 2025)
≈ marks a conversion by molar mass, not a printed value. Read-outs that look alike come from different tables or passages of the source. Marks after values point to notes of the source that are not given here.

Experiments:
E. coli ATCC 25922 [1] = assay: Cell membrane permeabilization, propidium iodide flow cytometry; type: cell-based, Escherichia coli; settings: for Membrane permeabilization (% PI +cells): compound at its MIC, 40 min, 5 × 10^6 CFU/mL, supplemented M9, mean of n = 3
Method: (§1) Membrane permeabilization of bacteria was then assessed by incubating bacteria at 37 °C, in a final volume of 1 mL, with varying concentrations of each peptide or antibiotic used for the BONCAT assay. 5 min before the ending of the selected incubation time (40 min), propidium iodide probe was added to the samples to a final concentration of 10 μg/mL before analysis using a flow cytometer. A positive control consisted of E. coli cells dehydrated with ethanol (as described above), while untreated cells were used as negative control. The fluorescence of untreated cells was used to establish the gating for positive PI-stained cells. Fixed bacterial cells, subjected to the click chemistry reaction to link the Alexa Fluor azide 488 probe, were analysed by flow cytometry and, among the gates-selected ones, only those that tested positive for Propidium Iodide, and thus permeabilized, were considered for the calculation of the mean fluorescence intensity (MFI) of the Alexa Fluor azide 488.
(§2) Samples were analyzed by an Attune NxT® (ThermoFisher) equipped with a blue laser (488 nm) and photomultiplier tubes (PMTs) BL1 (525/50) and BL3 (695/40) to collect fluorescence. All parameters were set in logarithmic scale and the signals were recorded as Area. Forward scattering (FSC) was set to 300 mV, side scattering (SSC) to 350 mV and thresholds to 0.2 for FSC and 0.5 for SSC. The compensation matrix was performed according to the tool software. Hierarchical gates and acquisition flow rate (200 μL/min) were set to avoid coincident events. The files were saved as FCS 3.1 and analysed by FCS Express De Novo software v7. Flow cytometry data are presented as means ± SD from three independent experiments (n = 3).

[2] = test system: K. pneumoniae ATCC 700603; assay: as above; type: cell-based, Klebsiella pneumoniae; settings: compound at its MIC, 40 min, 5 × 10^6 CFU/mL, supplemented M9; mean of n = 3
Method: as §1, with “An overnight culture of E. coli ATCC 25922, or of K. pneumoniae ATCC 700603, prepared as described above, was diluted to a final concentration of 5 × 10^6 CFU/mL and allowed to adjust for 30 min at 37 °C under shaking. Membrane” for “Membrane”
as §2

E. coli ATCC 25922 [3] = assay: microbe, parasite or virus in culture; type: cell-based, Escherichia coli; settings: for MIC: 18 h, 37 °C, mode of at least three experiments
Method: […] Each peptide, diluted at a starting concentration of 128 μM in supplemented M9 medium was added to the first column of wells of a 96-well round-bottom microplate (Sarstedt, Milan, Italy). Serially two-fold dilution (1:1) were performed across subsequent wells to a final volume of 50 μL. 50 μL of bacterial suspension (1 × 10^7 CFU/mL) were then added to each well, to a final bacterial concentration in each well to 5 × 10^6 CFU/mL per well. Untreated bacterial culture was used as growth control, while 100 μL of uninoculated supplemented M9 medium was used to verify the sterility of the medium. The plates were sealed with parafilm to minimize evaporation and incubated at 37 °C for 18 h. The minimum inhibitory concentration (MIC) was visually determined as the lowest peptide concentration in a well with no visible bacterial growth. Data are reported as the mode of at least three independent experiments.

E. coli ATCC 25922 [4] = assay: BONCAT: HPG incorporation into newly synthesized proteins, flow cytometry; type: cell-based, Escherichia coli; settings: compound at MIC; for Fluorescence Intensity (% of Control): 10 min pre-incubation then 30 min HPG, untreated = 100%, mean, n ≥ 3; for Decrease in fluorescence compared to untreated bacteria: 40 min total incubation (10 min + 30 min HPG)
Method: (§3) We used a modified protocol from [Lindivat et al. (2020)]. Briefly, overnight cultures of E. coli ATCC 25922 or K. pneumoniae ATCC 700603, prepared as described above, were diluted to a final concentration of 5×10^6 CFU/mL and allowed to adjust for 30 min at 37 °C. The culture was then incubated at 37 °C in the dark for 10 or 30 min in the presence or absence of each peptide or antibiotic at various concentrations, with a final volume of 1 mL. At this point, only in certain specified experimental assays, the compounds were removed from the supernatant by centrifugation (16,000 × g for 5 min) and bacteria were washed and resuspended in fresh supplemented M9 medium. Then, 32 μL of a 500 μM homopropargylglycine (HPG) solution were added to each sample, resulting in a final concentration of 16 μM in a finale volume of 1 mL. Also included in each assay were two untreated controls containing only bacteria and bacteria treated with 16 μM HPG alone, respectively. All samples were then incubated at 37 °C in the dark for 30 min. After incubation, samples were washed once with 1X filtered Phosphate Buffered Saline (PBS) (centrifuged at 16,000 x g for 5 min) and resuspended in PBS. After washing, samples were fixed with formaldehyde (Sigma Aldrich, USA) to a final concentration of 3% in 1 mL for 1 h at 25 °C. Subsequently, the samples were centrifuged at 16,000 x g for 5 min and resuspended in 1 mL of PBS. If not analysed immediately, the fixed samples were stored at 4 °C prior to performing the click chemistry reaction. Samples were centrifugated at 16,000 x g for 5 min and bacteria cells were dehydrated by ethanol that was added sequentially to achieve a final concentration of 50% (v/v) (3 min of incubation), 80% (v/v) (3 min of incubation), and 95% (v/v) (3 min of incubation). After dehydration, the samples were centrifugated (16,000 × g, 5 min) and resuspended in PBS. For cell analysis by SDS-PAGE, the following variations were implemented: bacterial cells were diluted in supplemented M9 medium to a final density of ~ 1 × 10^9 CFU/mL, and HPG was added to the samples at a final concentration of 160 μM. Bacteria were incubated with HPG for 0, 15, 30, 60, or 120 min at 37 °C in the dark.
(§4) The click reaction was carried out according to [Rostovtsev et al. (2002)]. 15 μL of a pre-mix solution (prepared as described above) were added to each sample containing fixed bacteria that had incorporated HPG (30 μL of pre-mix solution in case of samples prepared for SDS-PAGE analysis), resulting in the following final concentrations in each sample: 0.1 mM copper sulfate, 0.5 mM Tris (3-hydroxypropyltriazolylmethyl)amine (THPTA), and 2.5 μM Alexa Fluor azide 488. Additionally, 50 μL of freshly prepared 100 mM sodium ascorbate and 50 μL of 100 mM aminoguanidine were added (100 μL in case of samples prepared for SDS-PAGE analysis), bringing the final volume to 1 mL. The samples were gently inverted once to mix and incubated for 30 min in the dark at 25 °C. Finally, each sample was washed with PBS once (centrifuged at 16,000 × g for 5 min) and resuspended in 1 mL PBS.
An overnight culture of E. coli ATCC 25922, or of K. pneumoniae ATCC 700603, prepared as described above, was diluted to a final concentration of 5 × 10^6 CFU/mL and allowed to adjust for 30 min at 37 °C under shaking. Membrane permeabilization of bacteria was then assessed by incubating bacteria at 37 °C, in a final volume of 1 mL, with varying concentrations of each peptide or antibiotic used for the BONCAT assay. 5 min before the ending of the selected incubation time (40 min), propidium iodide probe was added to the samples to a final concentration of 10 μg/mL before analysis using a flow cytometer. A positive control consisted of E. coli cells dehydrated with ethanol (as described above), while untreated cells were used as negative control. The fluorescence of untreated cells was used to establish the gating for positive PI-stained cells. […]

E. coli ATCC 25922 [5] = assay: Post-antibiotic effect (PAE), growth kinetics after washout; type: cell-based, Escherichia coli; settings: 30 min treatment at MIC, OD600 every hour for 18 h in MHB, mean ± SD, n = 3
Method: An overnight culture of E. coli ATCC 25922, prepared as described above, was diluted to a final concentration of 5 × 10^6 CFU/mL and then incubated at 37 °C for 30 min in the presence or absence of each peptide or antibiotic at various concentrations, with a final volume of 1 mL. To measure the post-antibiotic effect (PAE) of antimicrobials, the compounds were removed from the supernatant by centrifugation (16,000 × g for 5 min) and bacteria were washed and resuspended in 1 mL of fresh supplemented MHB medium, to promote faster growth visible as increased absorbance. 200 μL of each sample was then transferred to a 96-well round-bottom microplate (Sarstedt, Milan, Italy), which was then placed in a Nanoquant Infinite-M200Pro plate reader with stable temperature at 37 °C. Each sample was surrounded by water-filled wells to reduce its own evaporation. Optical density at 600 nm was then recorded for each sample every hour for up to 18 h. PAE was calculated according to [Holfeld et al. (2018)] as the difference between the time needed for a cell culture incubated with an antibiotic substance to reach half-maximum absorbance of the control culture and the time that the control culture needed to reach half-maximum absorbance of the stationary phase. According to this definition, the PAE of each compound (expressed as time) was calculated based on the OD₆₀₀ value of its respective replicate, which corresponded to half of the maximum absorbance reached by the control culture in the stationary phase (at 18 h). The mean PAE values (PAE in hours) of each compound, were obtained by averaging the times from the three independent experiments.

[6] = test system: K. pneumoniae ATCC 700603; assay: microbe, parasite or virus in culture; type: cell-based, Klebsiella pneumoniae; settings: for MIC: 18 h, 37 °C, mode of at least three experiments
Method: […] […] Serially two-fold dilution (1:1) were performed across subsequent wells to a final volume of 50 μL. […] […] The plates were sealed with parafilm to minimize evaporation and incubated at 37 °C for 18 h. The minimum inhibitory concentration (MIC) was visually determined as the lowest peptide concentration in a well with no visible bacterial growth. Data are reported as the mode of at least three independent experiments.

[7] = test system: K. pneumoniae ATCC 700603; assay: BONCAT: HPG incorporation into newly synthesized proteins, flow cytometry; type: cell-based, Klebsiella pneumoniae; settings: compound at MIC, 10 min pre-incubation then 30 min HPG; untreated = 100%; mean, n ≥ 3
Method: as §3
as §4, with “Finally, each sample was washed with PBS once (centrifuged at 16,000 × g for 5 min) and resuspended in 1 mL PBS.” left out
An overnight culture of E. coli ATCC 25922, or of K. pneumoniae ATCC 700603, prepared as described above, was diluted to a final concentration of 5 × 10^6 CFU/mL and allowed to adjust for 30 min at 37 °C under shaking. Membrane permeabilization of bacteria was then assessed by incubating bacteria at 37 °C, in a final volume of 1 mL, with varying concentrations of each peptide or antibiotic used for the BONCAT assay. […] The fluorescence of untreated cells was used to establish the gating for positive PI-stained cells. […]

[8] = Mueller Hinton, 2,5x10^5 CFU/mL

CCO [Ethanol]
Membrane permeabilization (% PI +cells) (E. coli ATCC 25922 [1]): 78% | Membrane permeabilization (% PI +cells) (E. coli ATCC 25922 [1]; listed as EtOH): 78% | Membrane permeabilization (% PI +cells) [2]: 96%

CCn1cc(C(=O)O)c(=O)c2ccc(C)nc21 [NDX, Nalidixic Acid]
MIC (E. coli ATCC 25922 [3]; Escherichia coli, ATCC25922, 18 h, supplemented M9 medium, 5 × 10^6 CFU/mL, visual, read-out: MIC): 16 µM (≈ 3.72 µg/mL) | Membrane permeabilization (% PI +cells) (E. coli ATCC 25922 [1]): <1% | Fluorescence Intensity (% of Control) (E. coli ATCC 25922 [4]): 107 % of Control | Decrease in fluorescence compared to untreated bacteria (E. coli ATCC 25922 [4]): did not affect fluorescence intensity | PAE (E. coli ATCC 25922 [5]): 0.8 ± 0.4 h

CN(C)[C@@H]1C(O)=C(C(N)=O)C(=O)[C@@]2(O)C(O)=C3C(=O)c4c(O)cccc4[C@@](C)(O)[C@H]3C[C@@H]12 [TET, tetracycline]
MIC ([6]; Klebsiella pneumoniae, ATCC700603, supplemented M9 medium, 5 × 10^6 CFU/mL, visual): 32 µM (≈ 14.2 µg/mL) | Membrane permeabilization (% PI +cells) [2]: <1% | Fluorescence Intensity (% of Control) [7]: 37 % of Control

Colistin
Fold increase in MIC on 20-fold increase in cell density (E. coli ATCC 25922 [3]; MHB, 5×10^6 vs 2,5×10^5 CFU/well): 4-8 fold | MIC (E. coli ATCC 25922 [3]; [8]): 0,5 * µM | MIC (E. coli ATCC 25922 [3]; Mueller Hinton, 5x10^6 CFU/mL, read-out: MIC): 4 µM | Fold increase in MIC in M9 medium compared to MHB (E. coli ATCC 25922 [3]; same bacterial concentration): 2-4 fold | MIC (E. coli ATCC 25922 [3]; supplemented M9 medium, 5 × 10^6 CFU/mL, visual, read-out: MIC): 16 µM | MIC [6, 8]: 1 µM | Fold increase in MIC, BONCAT conditions vs standard conditions ([6]; supplemented M9 5×10^6 CFU/well vs MHB 2,5×10^5 CFU/well): 16 fold | MIC ([6]; supplemented M9 medium, 5 × 10^6 CFU/mL, visual): 16 µM | Permeabilized cells (PI+) (E. coli ATCC 25922 [1]; colistin 0,5 µM (MIC) at 2,5x10^5 CFU/mL, 40 minutes of incubation): around 50% | Membrane permeabilization (% PI +cells) (E. coli ATCC 25922 [1]): 1% | Membrane permeabilization (% PI +cells) (E. coli ATCC 25922 [1]; listed as Colistin): 1% | Membrane permeabilization (% PI +cells) (E. coli ATCC 25922 [1]; listed as colistin): no membrane permeabilization | Fluorescence Intensity (% of Control) (E. coli ATCC 25922 [4]): 87 % of Control | Decrease in fluorescence compared to untreated bacteria (E. coli ATCC 25922 [4]): nor decreased bacterial fluorescence
